Test results reported in PubChem BioAssay (NCI).
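All cell lines were grown in 96-well plates and treated with compound for 48 hours. Abbreviation: GI50, concentration required for 50% inhibition of growth. TGI is the concentration that stops growth completely.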

System: MDA-MB-468 breast
Assay: inhibition of tumour cell growth, NCI panel, 48 h

Row | Structure (SMILES) | GI50 | TGI
1 | CCCCc1ccc2nc(NC(=O)OC)[nH]c2c1 | 0.107 µM | 1.6 µM
2 | CCN1CCC(C(=O)Nc2n[nH]c3nnc(-c4cccc(F)c4F)cc23)CC1 | 2.32 µM | 6.78 µM
3 | COC12C=C/C(=C(/C(=O)OCc3ccncn3)C(=O)CCCCCCCCC3(OC)C=C/C(=C(/C(=O)OCc4ccncn4)C(=O)CCCCCCCC1)O3)O2 | 0.239 µM | 0.682 µM
4 | COc1ccc(/C=C2/SC(=Nc3c(C)nn(-c4ccccc4)c3N)NC2=O)cc1 | 3.24 µM | 12.4 µM
5 | COc1cc(-c2cc(-c3ccc(N(C)C)cc3)nc(N3CCC(O)CC3)c2C#N)cc(OC)c1OC | 1.11 µM | 4.08 µM
6 | Cc1ncc(C(=O)Nc2ccc(CN3CCN(C)CC3)c(C(F)(F)F)c2)cc1C#Cc1c(N)ncc2ccc(C#N)cc12 | 7.86 µM | 28.1 µM
7 | CC(C)(O)Cn1c(=O)c(Oc2ccc(F)cc2F)cc2cnc(NC3CCOCC3)nc21 | > 25 µM | > 25 µM
8 | CCc1nc(N)nc(N)c1-c1ccc(Cl)cc1 | 11.4 µM | > 100 µM
9 | N#C/C(=C\c1ccc(-c2ccc(F)cc2)o1)C(=O)Nc1ncc(Cc2ccc(Cl)cc2Cl)s1 | 2.17 µM | 5.01 µM
10 | O=c1ccc2nc(-c3ccccc3)nn(-c3ccccc3)c-2c1 | 1.02 µM | 2.4 µM
11 | COc1cc[c]([Hg][Cl])cc1 | 1.66 µM | 3.35 µM
12 | CC/C=C/[C@@H]1C=C[C@@H]2CCC[C@H]2[C@@H]1CC[C@H](O)[C@H](C)N | 1.24 µM | 2.69 µM
13 | Cc1cc2c(-c3nc4ccccc4[nH]3)c(O)c(O)cc2c(O)c1-c1c(C)cc2c(-c3nc4ccccc4[nH]3)c(O)c(O)cc2c1O | 0.02 µM | 0.601 µM
14 | COc1cc([C@@H]2c3cc4c(cc3[C@H](OC3OC5COC(c6ccccc6)OC5C(O)C3O)[C@H]3COC(=O)[C@H]23)OCO4)cc(OC)c1OC (some centres not stated) | 0.472 µM | 19.6 µM
15 | C=C1C(=O)O[C@@H]2[C@@H]3O[C@@](C)(CC/C=C(\C)CCC[C@@H]2C)[C@H](O)C[C@@H]13 | 1.15 µM | 2.8 µM
16 | COc1ccc([C@H]2c3cc(OC)c(OC)cc3C=C(C=O)C2CO)cc1OC (some centres not stated) | 2.55 µM | 25.1 µM
17 | O=C1CCC/C=C\C[C@H]2C=C(Cl)C(=O)/C2=C/C[C@H](CCCCC(F)(F)F)OC(=O)CCC/C=C\C[C@H]2C=C(Cl)C(=O)/C2=C/C[C@H](CCCCC(F)(F)F)O1 | 0.239 µM | 0.721 µM
18 | C(=N\Nc1ncc(-c2cc3cc4c(cc3o2)OCO4)s1)/c1c[nH]c2ccccc12 | 1.01 µM | 6.05 µM
19 | COc1ccc(CN2CCc3c(Cl)nc(N)nc3C2=O)c(OC)c1 | 5.85 µM | 33.1 µM
20 | COc1ccc(C(=O)CC2(O)C(=O)Nc3c(Cl)ccc(Cl)c32)cc1 (configuration not stated) | 0.536 µM | –
21 | COc1ccccc1/C=C1\COc2ccc(O)c(O)c2C1=O | 1.24 µM | 3.29 µM
22 | COc1c(O)c2ccccc2c2cc(O)ccc12 | 3.7 µM | 15 µM
23 | C#Cc1cccc(NC(=O)Nc2ccccc2NC(=O)CCl)c1 | 16 µM | 39.3 µM
24 | Cc1ccc(CCC(=O)Nc2ncc(Cc3cc(Cl)ccc3Cl)s2)o1 | 0.266 µM | 20.7 µM
25 | C=C1C(=O)OC(CCCCCCCC)C1C(=O)O (configuration not stated) | 5.61 µM | 16.7 µM
26 | CC(C)Oc1cc(OCC(=O)O)cc(C(=O)N(CCC(N)=O)C(=O)Nc2ccc(C(=O)O)cc2OC(C)C)c1 | > 100 µM | > 100 µM
27 | CCOC(=O)c1c(NC(=O)c2ccc(C(F)(F)F)cc2)sc2c3c(ccc12)OCN(C)C3 | 1.56 µM | 3.18 µM
28 | CCN(CC)CCCCCCCCNc1c2ccc(Cl)cc2nc2ccc(OC)cc12 | 1.44 µM | 2.77 µM
29 | CCN1CCN(C(=O)[C@]23CC[C@@H](C)[C@H](C)[C@@H]2C2=CC[C@@H]4[C@@]5(C)C/C(=C/c6cccnc6)C(=O)C(C)(C)[C@@H]5CC[C@@]4(C)[C@]2(C)CC3)CC1 | 1.65 µM | 3.43 µM
